In patent US10889609B2, “Mannitol-based amphipathic compound and use thereof” (Industry-University Cooperation Foundation Hanyang …, priority 2015, dated 2021):
Where “and” joins values, the source holds several entries; their conditions need not be identical. Equal values may be shown once.

Assays:
[1] = Hydrodynamic radius and size distribution of micelles by dynamic light scattering (DLS); format: physicochemical
Text: A method of measuring the radius of the micelle is not particularly limited, but the methods widely known in the related art may be used. For example, the radius of the micelle may be measured using a dynamic light scattering (DLS) experiment.
(§1) To determine characteristics of the MNAs of Preparative Example 1 to 10 synthesized according to the synthesis method of Example 1, the molecular weights (M.W.) and critical micellar concentrations (CMCs) of the MNAs and the hydrodynamic radii (Rh) of the formed micelles were measured.
(§2) Specifically, the critical micellar concentration (CMC) was measured using a hydrophobic fluorescence stain (diphenylhexatriene (DPH)), and the hydrodynamic radii (Rh) of the micelles formed by each of the preparations were measured by a dynamic light scattering (DLS) experiment. The measured results were compared to those of DDM that is a conventional amphipathic molecule (a detergent), and are listed in Table 1.
Meanwhile, the size distributions of the micelles formed by the MNAs were measured using DLS, and the measurement results are shown in FIG. 17. The MNAs were used at a content of 1.0% by weight.

[2] = Critical micellar concentration (CMC) by hydrophobic fluorescence stain diphenylhexatriene (DPH); format: physicochemical
Text: A method of measuring the CMC is not particularly limited, but the methods widely known in the related art may be used. For example, the CMC may be measured by a fluorescence detection method using diphenylhexatriene (DPH).
as §1, §2

boron transporter (Bor1) = target: T1, boron transporter (Bor1) (Arabidopsis thaliana, UniProt Q8VYR7); assay: Structural stability and extraction of Bor1 by heat fluorescence size exclusion chromatography (hFSEC); conditions: for level of Bor1 protein aggregation after heat treatment: 40° C. for 10 minutes, FIG. 18
T1 construct: made in house; host or cells: Saccharomyces cerevisiae FGY217
Procedure: An experiment for measuring the structural stability of a boron transporter (Bor1) by the MNAs was performed. The structural stability of Bor1 was measured using heat fluorescence size exclusion chromatography (hFSEC), and the concentrations of the MNAs and DDM were CMC plus 0.04% by weight. Specifically, Bor1 of Arabidopsis thaliana was expressed in Saccharomyces cerevisiae FGY217 cells as a fusion protein having a C-terminal GFP-His tag. The cells were grown in a -URA medium supplemented with 0.1% glucose. Expression of proteins was induced by adding 2% galactose, and the cells were then cultured at 20° C. for 18 hours. Here, the cell culture was carried out according to the method described in the article by D. Drew et al. (Nat. Protoc. 2008, 3, 784-798.). The cells were collected to prepare membranes, and the cell collection was carried out according to the method described in the article by J. Leung et al. (Protein Expr. Purif. 2010, 72, 139-146.). The membranes including the Bor1-GFP fusion protein were diluted with phosphate-buffered saline (PBS, pH 7.4) until the final concentration of the total proteins reached 2.8 mg/mL. In this case, 1% by weight of DDM or 1% by weight of MNA (MNA-1, MNA-2, MNA-3, MNA-4, MNA-5, MNA-6, or MNA-7) was added to the PBS. Samples were incubated for an hour while shaking at 4° C., and insoluble materials were then removed by centrifugation at 14,000 g and 4° C. for an hour. The supernatant including the dissolved protein samples was heated at 40° C. for 10 minutes, and the strongly aggregated proteins were removed by centrifugation at 14,000 g and 4° C. for 10 minutes. 200 μL of the supernatant of the samples was injected into a Superose 6 10/300 column equilibrated with 20 mM Tris (pH 7.5), 150 mM NaCl, and 0.03% DDM. Each of elution fractions was collected in 200 μL fractions at a retention volume of 6.4 mL (e.g., 6.4 mL after elusion) in a clear bottom 96-well plate. The GFP fluorescence of each of the fractions was measured at an excitation wavelength of 470 nm and an emission wavelength of 512 nm.

[3] = target: T2, human β2 adrenergic receptor (β2AR) (Homo sapiens, UniProt P07550); assay: mBBr-β2AR bimane spectra at detergent concentration below CMC; format: biochemical; conditions: detergent diluted to a fiftieth of its CMC, compared to DDM, FIG. 21
T2 construct: made in house
Procedure: Experiments for comparing the structural changes of the β2AR protein by the MNAs and DDM at a concentration below CMCs of the amphipathic molecules were performed.
Specifically, 0.5 μL of a non-ligand mBBr-labeled receptor dissolved at 50 μNI in a 20×CMC concentration of MNA-5, MNA-6, or MNA-7 was diluted with 500 μL of an NH buffer (20 mM HEPES pH 7.5, and 100 mM NaCl). The proteins were cultured for 30 minutes, and the bimane spectra thereof were measured. The receptor dissolved in 0.1% DDM was diluted with the NH buffer, and used as the control. Data was presented as an average of three separate experiments performed in triplicate.

[4] = target: T2, human β2 adrenergic receptor (β2AR); assay: Size exclusion chromatography (SEC) of β2AR protein-detergent complexes (PDCs); conditions: Superdex-200, FIG. 23
Procedure: An SEC analysis was performed to determine the size of the protein-amphipathic molecule complex (i.e., a protein-detergent complex (PDC)) formed by DDM, MNA-6, or MNA-7.
Specifically, the β2AR dissolved in DDM, MNA-6 or MNA-7 was used as a test sample in the same manner as used in Example 5-3. The sample was loaded onto a Superdex-200 10/300 GL column (GE Healthcare) at 0.5 ml/min, an innate tryptophane fluorescence signal was measured at an excitation wavelength of 295 nm and an emission wavelength of 345 nm. A running buffer includes 20 mM HEPES pH 7.5, 100 mM NaCl, and 20×CMC MNA-6 or MNA-7. A difference in retention volume of the protein samples means a difference in size of the protein-detergent complexes (PDCs) formed in the presence of the amphipathic molecules.

[5] = target: T2, human β2 adrenergic receptor (β2AR); assay: Negative-stain electron microscopy (EM) of β2AR dissolved in detergent; conditions: negative staining, compared to DDM, FIG. 24
Procedure: A β2AR protein analysis test was performed for DDM, MNA-6, or MNA-7 using an electron microscope.
Specifically, samples were prepared using the conventional negative staining protocol disclosed in the article by M. Ohi et al. (Biol. Proced. Online 2004, 6, 23-34.). In summary, 3 μL of β2AR dissolved in DDM, MNA-6, or MNA-7 was pipetted onto a glow-discharged carbon-coated grid, and stained with 1% (w/v) uranyl formate. Thereafter, the β2AR was imaged at room temperature by running a Morgagni 268(D) transmission electron microscope (FEI Company) at 100 kV. The images were recorded at 30,416×calibrated magnification using an Orius SC200W CCD camera (Gatan Inc.).

T1 sequence (Q8VYR7 whole entry): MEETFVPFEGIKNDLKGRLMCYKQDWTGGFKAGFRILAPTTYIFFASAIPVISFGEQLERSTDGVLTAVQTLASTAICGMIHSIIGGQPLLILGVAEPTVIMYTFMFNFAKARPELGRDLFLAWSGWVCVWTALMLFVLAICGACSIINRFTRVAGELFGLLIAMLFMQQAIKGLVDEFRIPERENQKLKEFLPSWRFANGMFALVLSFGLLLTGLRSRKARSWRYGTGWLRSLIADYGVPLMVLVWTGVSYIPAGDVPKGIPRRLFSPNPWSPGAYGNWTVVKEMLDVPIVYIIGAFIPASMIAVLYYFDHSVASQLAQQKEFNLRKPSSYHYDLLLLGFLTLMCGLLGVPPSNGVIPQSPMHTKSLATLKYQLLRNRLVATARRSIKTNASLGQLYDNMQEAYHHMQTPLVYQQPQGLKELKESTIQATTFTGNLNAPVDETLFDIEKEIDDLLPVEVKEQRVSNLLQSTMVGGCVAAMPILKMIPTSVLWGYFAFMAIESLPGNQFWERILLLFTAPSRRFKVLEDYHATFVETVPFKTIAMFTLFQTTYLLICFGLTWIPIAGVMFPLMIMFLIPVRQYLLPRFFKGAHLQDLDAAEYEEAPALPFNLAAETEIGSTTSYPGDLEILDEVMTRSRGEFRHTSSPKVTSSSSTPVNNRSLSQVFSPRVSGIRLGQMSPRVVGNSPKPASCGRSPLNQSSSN
T2 sequence (P07550 whole entry): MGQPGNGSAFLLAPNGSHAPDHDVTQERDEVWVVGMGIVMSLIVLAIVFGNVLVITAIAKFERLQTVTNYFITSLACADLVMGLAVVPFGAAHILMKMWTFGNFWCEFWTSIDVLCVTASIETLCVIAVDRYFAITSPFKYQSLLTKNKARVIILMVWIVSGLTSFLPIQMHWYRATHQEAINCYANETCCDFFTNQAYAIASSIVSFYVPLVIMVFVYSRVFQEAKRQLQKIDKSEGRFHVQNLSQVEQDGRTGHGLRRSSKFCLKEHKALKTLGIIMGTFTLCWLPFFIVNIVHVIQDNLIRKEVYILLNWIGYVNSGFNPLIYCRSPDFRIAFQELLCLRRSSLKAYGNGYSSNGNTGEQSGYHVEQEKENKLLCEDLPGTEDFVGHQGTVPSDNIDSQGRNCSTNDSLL

Compound | Rh (nm), hydrodynamic radius of micelles [1] | CMC value [2] [µM] | CMC ([2]; aqueous solution) [mM] | CMC (% by weight) ([2]; aqueous solution) | Bor1 extraction efficiency (boron transporter (Bor1); 1% by weight detergent, membranes with Bor1-GFP) [%] | level of Bor1 protein aggregation after heat treatment (boron transporter (Bor1); hFSEC) | stability of β2AR [3] | effect on stabilization of Bor1 (boron transporter (Bor1); hFSEC, aggregation level and size of target protein peak) | size of β2AR protein-detergent complexes (PDCs) [4] | EM image background of dissolved β2AR [5]
CCCCCCCCCCCCO[C@@H]1O[C@H](CO)[C@@H](O[C@H]2O[C@H](CO)[C@@H](O)[C@H](O)[C@H]2O)[C@H](O)[C@H]1O [DDM, n-dodecyl-β-D-maltopyranoside, reference compound] | 3.4 nm and 3.4 ± 0.03 nm | 170 | ~0.17 | Approximately 0.0087 % by weight | 80 | significant level of protein aggregation | – | – | – | –
CCCCCCCCO[C@H]([C@@H](OCCCCCCCC)[C@H](CO[C@@H]1OC(CO)[C@@H](O)C(O)C1O)O[C@@H]1OC(CO)[C@@H](O)C(O)C1O)[C@H](CO[C@@H]1OC(CO)[C@@H](O)C(O)C1O)O[C@@H]1OC(CO)[C@@H](O)C(O)C1O (some centres unmarked) [MNA-1] | 2.3 nm and 2.3 ± 0.13 nm | – | ~0.15 | – | – | – | – | – | – | –
CCCCCCCCCO[C@H]([C@@H](OCCCCCCCCC)[C@H](CO[C@@H]1OC(CO)[C@@H](O)C(O)C1O)O[C@@H]1OC(CO)[C@@H](O)C(O)C1O)[C@H](CO[C@@H]1OC(CO)[C@@H](O)C(O)C1O)O[C@@H]1OC(CO)[C@@H](O)C(O)C1O (some centres unmarked) [MNA-2] | 2.5 nm and 2.5 ± 0.05 nm | – | ~0.05 | – | – | – | – | – | – | –
CCCCCCCCCCO[C@H]([C@@H](OCCCCCCCCCC)[C@H](CO[C@@H]1OC(CO)[C@@H](O)C(O)C1O)O[C@@H]1OC(CO)[C@@H](O)C(O)C1O)[C@H](CO[C@@H]1OC(CO)[C@@H](O)C(O)C1O)O[C@@H]1OC(CO)[C@@H](O)C(O)C1O (some centres unmarked) [MNA-3] | 2.7 nm and 2.7 ± 0.04 nm | – | ~0.015 | – | – | – | – | – | – | –
CCCCCCCCCCCO[C@H]([C@@H](OCCCCCCCCCCC)[C@H](CO[C@@H]1OC(CO)[C@@H](O)C(O)C1O)O[C@@H]1OC(CO)[C@@H](O)C(O)C1O)[C@H](CO[C@@H]1OC(CO)[C@@H](O)C(O)C1O)O[C@@H]1OC(CO)[C@@H](O)C(O)C1O (some centres unmarked) [MNA-4] | 2.9 nm and 2.9 ± 0.12 nm | – | ~0.006 | – | – | level of protein aggregation similar to DDM | – | – | – | –
CCCCCCCCCCCCCO[C@H]([C@@H](OCCCCCCCCCCCCC)[C@H](CO[C@@H]1OC(CO)[C@@H](O)C(O)C1O)O[C@@H]1OC(CO)[C@@H](O)C(O)C1O)[C@H](CO[C@@H]1OC(CO)[C@@H](O)C(O)C1O)O[C@@H]1OC(CO)[C@@H](O)C(O)C1O (some centres unmarked) [MNA-6] | 3.3 nm and 3.3 ± 0.04 nm | 2 | ~0.002 | – | – | lower level of Bor1 aggregation than DDM | secured for a prolonged period of time | best effect on stabilization of the Bor1 | smaller in size compared to those formed by DDM | uniform background clutter that were relatively smaller in quantity
CCCCCCCCCCCCCCO[C@H]([C@@H](OCCCCCCCCCCCCCC)[C@H](CO[C@@H]1OC(CO)[C@@H](O)C(O)C1O)O[C@@H]1OC(CO)[C@@H](O)C(O)C1O)[C@H](CO[C@@H]1OC(CO)[C@@H](O)C(O)C1O)O[C@@H]1OC(CO)[C@@H](O)C(O)C1O (some centres unmarked) [MNA-7] | 3.3 nm and 3.3 ± 0.08 nm | 1 | ~0.001 | – | – | lower level of Borl aggregation than DDM | secured for a prolonged period of time | – | smaller in size compared to those formed by DDM | uniform background clutter that were relatively smaller in quantity

Now from value to molecule, other results behind:

Rh (nm), hydrodynamic radius of micelles [1] | CMC value [2] [µM] | CMC ([2]; aqueous solution) [mM] | CMC (% by weight) ([2]; aqueous solution) | Bor1 extraction efficiency (boron transporter (Bor1); 1% by weight detergent, membranes with Bor1-GFP) [%] | level of Bor1 protein aggregation after heat treatment (boron transporter (Bor1); hFSEC) | stability of β2AR [3] | effect on stabilization of Bor1 (boron transporter (Bor1); hFSEC, aggregation level and size of target protein peak) | Compound | size of β2AR protein-detergent complexes (PDCs) [4] | EM image background of dissolved β2AR [5]
3.5 nm and 3.5 ± 0.1 nm | – | ~0.003 | – | – | – | – | – | CCCCCCCCCCCCCCCO[C@H]([C@@H](OCCCCCCCCCCCCCCC)[C@H](CO[C@@H]1OC(CO)[C@@H](O)C(O)C1O)O[C@@H]1OC(CO)[C@@H](O)C(O)C1O)[C@H](CO[C@@H]1OC(CO)[C@@H](O)C(O)C1O)O[C@@H]1OC(CO)[C@@H](O)C(O)C1O (some centres unmarked) [MNA-8] | – | –
3.8 nm and 3.8 ± 0.1 nm | 1 | ~0.001 | – | – | – | – | – | CCCCCCCCCCCCCCCCO[C@H]([C@@H](OCCCCCCCCCCCCCCCC)[C@H](CO[C@@H]1OC(CO)[C@@H](O)C(O)C1O)O[C@@H]1OC(CO)[C@@H](O)C(O)C1O)[C@H](CO[C@@H]1OC(CO)[C@@H](O)C(O)C1O)O[C@@H]1OC(CO)[C@@H](O)C(O)C1O (some centres unmarked) [MNA-9] | – | –
4.1 nm and 4.1 ± 0.2 nm | 1 | ~0.001 | – | – | – | – | – | CCCCCCCCCCCCCCCCCO[C@H]([C@@H](OCCCCCCCCCCCCCCCCC)[C@H](CO[C@@H]1OC(CO)[C@@H](O)C(O)C1O)O[C@@H]1OC(CO)[C@@H](O)C(O)C1O)[C@H](CO[C@@H]1OC(CO)[C@@H](O)C(O)C1O)O[C@@H]1OC(CO)[C@@H](O)C(O)C1O (some centres unmarked) [MNA-10] | – | –
